The text below walks through data of ChEMBL document CHEMBL1201862, “PubChem BioAssay data set” (2004).

In test [1] the target is Heat shock cognate 71 kDa protein (Homo sapiens, UniProt P11142). The experiment in a line: In Vitro Hsc70 Dose Response Fluorescence Polarization Assay. [Related pubchem assays: 1072 ]. On the technique in general: In fluorescence polarisation assays a small probe gives low polarisation when free and higher when bound to something large.
The target of test [2] is Heat shock 70 kDa protein 1A (Homo sapiens, UniProt P0DMV8). The experiment in a line: inhibition of Hsp70 binding activity – biochemical, fluorescence polarization, SAR follow-up (AID 1072).
The next test has as its target Cytochrome P450 2D6 (Homo sapiens, UniProt P10635). Kind of test: qHTS Assay for Inhibitors and Substrates of Cytochrome P450 2D6. [Related pubchem assays: 410 ]. Type of test: ADME. As to conditions: read-out: Potency. Background: qHTS replaces the single test concentration by a dilution series.
Test [3] in a line: viability loss in HEK293 cells – cell-based, plate reader, cherry-picked samples, cytotoxicity control, dose response (AID 743446). In kind it is functional.
The nature of test [4]: Fluorescence-based cell-based high throughput dose response assay for inhibitors of the interaction of nucleotide-binding oligomerization domain containing 2 (NOD2) and the receptor-interacting serine-threonine kinase 2 (RIPK2). To be noted: Homo sapiens. Type of test: functional.
Test [5] addresses T1, Sphingosine 1-phosphate receptor 4 (Homo sapiens, UniProt O95977).
T1 sequence (O95977 whole entry): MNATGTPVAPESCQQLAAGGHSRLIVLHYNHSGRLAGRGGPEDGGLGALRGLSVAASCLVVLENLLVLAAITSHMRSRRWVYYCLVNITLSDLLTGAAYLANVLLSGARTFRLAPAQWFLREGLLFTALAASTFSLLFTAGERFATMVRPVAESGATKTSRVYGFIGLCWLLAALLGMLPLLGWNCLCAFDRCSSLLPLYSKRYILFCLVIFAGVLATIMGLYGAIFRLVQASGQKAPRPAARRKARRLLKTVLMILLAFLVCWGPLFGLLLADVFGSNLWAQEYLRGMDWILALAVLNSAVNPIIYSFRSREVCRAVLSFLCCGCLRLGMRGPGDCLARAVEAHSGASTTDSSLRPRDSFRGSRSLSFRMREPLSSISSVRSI
Kind of test: Fluorescence dose response cell-based high throughput screening assay for antagonists of the Sphingosine 1-Phosphate Receptor 4 (S1P4). [Related pubchem assays: 1524 (Confirmation in triplicates.), 1510 (Primary screen.)]. In kind it is functional.

The target in the next test is Paired box protein Pax-8 (Homo sapiens, UniProt Q06710). The experiment in a line: PAX8 transcriptional activity inhibition in RMG-I – RMG-I cells, luciferase, cherry-pick, dose response (AID 687027).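 Also: luciferase reporter driven by Pax8 target thyroperoxidase promoter measured by SteadyGlo luminescence.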 In kind it is functional, cell-based.
A short description of test [6]: blockade of melanocortin 4 receptor signaling – cell-based, plate reader, cherry pick, counter-screen for LGR2 antagonist project, dose response (AID 743444).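 Also: transfected HEK 293 cells stimulated with alpha-MSH peptide; potency of inhibitors of the alpha-MSH evoked signal.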 Type of test: functional. In general terms: Counterscreens check selectivity or assay interference.
A short description of test [7]: blockers of bursicon-stimulated LGR2 cAMP reporter – cell-based, HEK293, CRE-luciferase reporter, cherry pick, set 2, dose response (AID 743343).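 Also: transfected cells were stimulated with diluted bursicon conditioned medium after compound addition.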 In kind it is functional.
In test [8] the target is Sphingosine 1-phosphate receptor 1 (Homo sapiens, UniProt P21453). Type of test: functional.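 Also: Tango beta-arrestin reporter U2OS cells stimulated with S1P near its EC80; inhibitor potency meaning antagonism of receptor activation by the natural agonist.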
The target in test [9] is T1, Sphingosine 1-phosphate receptor 4. The experiment in a line: Late stage fluorescence dose response cell-based screening assay for antagonists of the Sphingosine 1-Phosphate Receptor 4 (S1P4). [Related pubchem assays: 1524 (Confirmation screen (S1P4 antagonists).), 1510 (Primary screen (S1P4 antagonists).), 1853 (Summary AID (S1P4 antagonists).), 1692 (Dose response screen (S1P4 antagonists).)]. In kind it is functional.

Test [10] is described as follows: A549 cell cytotoxicity, dose response, cytotoxicity control, plate reader, cherry-pick, antagonist series (AID 743412). Type of test: functional, cell-based.
The nature of test [11]: toxicity toward HepG2 liver cells – cell-based, plate reader, cherry-pick, antagonist series, cytotoxicity control, dose response (AID 743416). In kind it is functional.
The target of test [12] is FAD-linked sulfhydryl oxidase ALR (Homo sapiens, UniProt P55789). The experiment in a line: ALR-catalysed DTT oxidation blockers – biochemical, H2O2 detection, luminescence, cherry-pick, dose response (AID 493248).
A further test concerns INS1. The experiment in a line: INS-1E survival protection against cytokine death – cell-based, luminescence, retest, dose response (AID 449756).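 Also: cell death triggered by IL-1 beta plus TNF-alpha plus IFN-gamma mixture; protective hits raise ATP signal compared with cytokine alone wells.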 In kind it is functional. As to conditions: Rattus norvegicus.
A further test has as its system Staphylococcus aureus. The experiment in a line: Inhibitors of Bacterial Quorum Sensing Structure Activity Relationship (SAR) Analysis: Dose Response Assay. [Related pubchem assays: 700, 527 ]. Type of test: functional, organism-based.
The target of a further test is Genome polyprotein (dengue virus type 2, UniProt P29990). The experiment in a line: flavivirus cap methylation enzyme inhibition – biochemical, confirmation dose response, primary screen (AID 588689). Type of test: functional.
Test [13] in a line: Luminescence-based counterscreen assay for KLF5 inhibitors: dose response cell-based high throughput screening assay to identify cytotoxic compounds using the IEC-6 intestinal epithelial cell line. [Related pubchem assays: 1700 (Primary screen.), 1834 (Confirmation screen.), 1858 (Summary AID.), 1905 (Counterscreen.)]. Type of test: functional.
In test [14] the target is T2, Microphthalmia-associated transcription factor (Homo sapiens, UniProt O75030).
T2 sequence (O75030 whole entry): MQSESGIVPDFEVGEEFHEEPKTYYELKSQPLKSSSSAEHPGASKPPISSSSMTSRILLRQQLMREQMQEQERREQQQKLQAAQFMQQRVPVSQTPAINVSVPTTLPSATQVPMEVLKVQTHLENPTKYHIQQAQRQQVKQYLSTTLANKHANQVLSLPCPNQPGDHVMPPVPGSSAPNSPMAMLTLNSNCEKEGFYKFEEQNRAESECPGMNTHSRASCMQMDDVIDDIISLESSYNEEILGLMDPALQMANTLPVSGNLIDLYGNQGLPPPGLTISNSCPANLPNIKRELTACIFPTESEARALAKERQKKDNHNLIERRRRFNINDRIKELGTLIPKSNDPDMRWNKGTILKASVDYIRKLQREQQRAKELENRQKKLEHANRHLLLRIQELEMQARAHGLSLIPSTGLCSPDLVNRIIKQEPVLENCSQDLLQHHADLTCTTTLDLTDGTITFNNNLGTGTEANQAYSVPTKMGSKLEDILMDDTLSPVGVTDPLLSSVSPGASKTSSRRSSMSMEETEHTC
The experiment in a line: reducers of TRPM1 reporter luminescence, concentration series – cell-based, SK-MEL-5, cherry-picked, set 3, MITF inhibitor project, dose response (AID 493073).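 Also: SK-MEL-5 melanoma cells with luciferase driven by the MITF target TRPM1 promoter.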 Type of test: functional.

The structures appear in SMILES notation. The source made the active and inactive calls. Some results are limits rather than exact numbers.

Heat shock cognate 71 kDa protein, sequence (P11142 whole entry): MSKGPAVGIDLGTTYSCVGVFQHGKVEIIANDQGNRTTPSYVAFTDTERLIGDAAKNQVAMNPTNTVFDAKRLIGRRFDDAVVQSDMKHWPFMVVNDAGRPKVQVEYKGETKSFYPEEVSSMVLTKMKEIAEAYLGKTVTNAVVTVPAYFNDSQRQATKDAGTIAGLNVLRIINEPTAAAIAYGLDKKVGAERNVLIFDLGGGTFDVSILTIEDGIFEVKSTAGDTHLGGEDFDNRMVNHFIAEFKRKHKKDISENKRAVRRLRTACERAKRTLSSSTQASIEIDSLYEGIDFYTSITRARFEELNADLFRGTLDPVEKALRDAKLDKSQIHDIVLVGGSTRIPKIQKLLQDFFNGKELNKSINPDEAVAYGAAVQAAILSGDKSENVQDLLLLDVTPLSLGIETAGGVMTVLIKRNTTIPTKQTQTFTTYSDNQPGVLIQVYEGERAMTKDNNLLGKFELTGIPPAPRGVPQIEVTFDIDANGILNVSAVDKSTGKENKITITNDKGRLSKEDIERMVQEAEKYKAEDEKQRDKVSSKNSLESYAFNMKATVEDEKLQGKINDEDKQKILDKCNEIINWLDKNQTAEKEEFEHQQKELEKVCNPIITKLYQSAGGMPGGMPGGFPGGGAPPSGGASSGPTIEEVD
Cytochrome P450 2D6, sequence (P10635 whole entry): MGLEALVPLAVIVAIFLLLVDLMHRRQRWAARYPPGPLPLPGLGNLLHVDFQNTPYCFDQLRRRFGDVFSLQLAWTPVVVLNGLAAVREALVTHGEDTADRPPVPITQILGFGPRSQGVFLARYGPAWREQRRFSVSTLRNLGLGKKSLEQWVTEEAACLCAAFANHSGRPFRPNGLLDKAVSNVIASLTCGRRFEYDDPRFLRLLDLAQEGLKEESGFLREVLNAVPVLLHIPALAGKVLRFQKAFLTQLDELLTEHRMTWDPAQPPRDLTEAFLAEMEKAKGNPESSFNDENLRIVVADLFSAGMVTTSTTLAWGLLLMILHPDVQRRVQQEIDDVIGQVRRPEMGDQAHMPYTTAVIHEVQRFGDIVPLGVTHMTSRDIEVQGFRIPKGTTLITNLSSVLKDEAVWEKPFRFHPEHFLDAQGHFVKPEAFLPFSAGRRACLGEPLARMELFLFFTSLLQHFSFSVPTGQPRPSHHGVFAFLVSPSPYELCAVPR
FAD-linked sulfhydryl oxidase ALR, sequence (P55789 whole entry): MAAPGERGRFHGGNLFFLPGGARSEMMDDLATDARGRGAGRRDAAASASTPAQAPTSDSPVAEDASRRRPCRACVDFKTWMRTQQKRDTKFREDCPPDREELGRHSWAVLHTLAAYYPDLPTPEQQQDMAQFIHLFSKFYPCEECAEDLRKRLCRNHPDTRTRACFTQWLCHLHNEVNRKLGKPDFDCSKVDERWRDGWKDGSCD
Genome polyprotein, sequence (P29990 2492-3391 limits assumed): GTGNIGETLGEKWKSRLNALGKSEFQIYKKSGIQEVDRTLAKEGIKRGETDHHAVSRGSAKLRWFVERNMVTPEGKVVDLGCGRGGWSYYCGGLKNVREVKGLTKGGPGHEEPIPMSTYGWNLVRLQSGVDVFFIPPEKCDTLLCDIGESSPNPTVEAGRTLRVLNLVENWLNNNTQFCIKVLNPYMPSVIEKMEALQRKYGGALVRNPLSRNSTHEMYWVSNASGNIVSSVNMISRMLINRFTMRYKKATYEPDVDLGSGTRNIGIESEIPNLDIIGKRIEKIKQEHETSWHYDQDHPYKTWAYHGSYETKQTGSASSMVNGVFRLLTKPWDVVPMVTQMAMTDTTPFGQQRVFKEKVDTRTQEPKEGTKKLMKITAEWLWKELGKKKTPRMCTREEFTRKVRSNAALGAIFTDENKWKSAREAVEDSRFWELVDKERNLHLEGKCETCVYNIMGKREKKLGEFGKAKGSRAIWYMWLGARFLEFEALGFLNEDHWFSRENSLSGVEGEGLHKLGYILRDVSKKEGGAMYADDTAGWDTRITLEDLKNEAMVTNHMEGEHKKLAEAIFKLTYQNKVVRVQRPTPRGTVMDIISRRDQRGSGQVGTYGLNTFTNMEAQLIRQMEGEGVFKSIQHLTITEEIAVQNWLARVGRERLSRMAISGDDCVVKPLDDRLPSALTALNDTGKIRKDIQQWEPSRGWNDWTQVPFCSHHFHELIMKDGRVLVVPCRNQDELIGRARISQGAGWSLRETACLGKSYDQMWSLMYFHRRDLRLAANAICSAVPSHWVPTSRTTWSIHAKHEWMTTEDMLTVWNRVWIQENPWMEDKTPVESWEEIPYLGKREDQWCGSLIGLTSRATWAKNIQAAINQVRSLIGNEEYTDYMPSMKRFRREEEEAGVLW
Heat shock 70 kDa protein 1A, sequence (P0DMV8 whole entry): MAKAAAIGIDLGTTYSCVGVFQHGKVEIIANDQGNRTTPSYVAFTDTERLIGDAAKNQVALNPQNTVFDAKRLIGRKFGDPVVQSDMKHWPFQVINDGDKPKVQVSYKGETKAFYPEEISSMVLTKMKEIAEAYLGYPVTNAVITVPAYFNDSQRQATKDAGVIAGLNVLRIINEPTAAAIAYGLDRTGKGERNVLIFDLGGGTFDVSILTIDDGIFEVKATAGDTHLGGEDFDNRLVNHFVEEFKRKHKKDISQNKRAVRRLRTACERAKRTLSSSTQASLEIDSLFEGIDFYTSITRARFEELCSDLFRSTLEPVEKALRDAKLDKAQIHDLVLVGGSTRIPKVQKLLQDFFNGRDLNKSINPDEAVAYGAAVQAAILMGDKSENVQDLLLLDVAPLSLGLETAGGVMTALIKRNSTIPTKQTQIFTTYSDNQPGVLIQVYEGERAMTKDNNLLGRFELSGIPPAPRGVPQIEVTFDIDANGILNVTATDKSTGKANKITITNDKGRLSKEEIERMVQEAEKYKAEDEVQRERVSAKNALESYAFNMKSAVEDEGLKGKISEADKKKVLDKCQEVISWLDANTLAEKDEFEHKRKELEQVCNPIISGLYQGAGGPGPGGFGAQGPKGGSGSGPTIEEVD
Paired box protein Pax-8, sequence (Q06710 whole entry): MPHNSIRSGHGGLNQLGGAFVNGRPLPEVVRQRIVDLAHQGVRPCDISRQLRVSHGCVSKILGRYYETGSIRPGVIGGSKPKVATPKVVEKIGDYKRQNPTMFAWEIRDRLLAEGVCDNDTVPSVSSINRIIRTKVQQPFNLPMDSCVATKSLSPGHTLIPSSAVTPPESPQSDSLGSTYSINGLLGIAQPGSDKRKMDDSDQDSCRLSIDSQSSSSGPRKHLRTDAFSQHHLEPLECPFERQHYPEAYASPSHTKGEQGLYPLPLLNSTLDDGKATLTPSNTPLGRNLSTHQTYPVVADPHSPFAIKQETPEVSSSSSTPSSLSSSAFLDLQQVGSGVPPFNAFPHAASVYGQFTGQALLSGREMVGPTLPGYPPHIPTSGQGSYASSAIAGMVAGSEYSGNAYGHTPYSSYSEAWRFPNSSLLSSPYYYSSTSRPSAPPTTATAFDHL
Sphingosine 1-phosphate receptor 1, sequence (P21453 whole entry): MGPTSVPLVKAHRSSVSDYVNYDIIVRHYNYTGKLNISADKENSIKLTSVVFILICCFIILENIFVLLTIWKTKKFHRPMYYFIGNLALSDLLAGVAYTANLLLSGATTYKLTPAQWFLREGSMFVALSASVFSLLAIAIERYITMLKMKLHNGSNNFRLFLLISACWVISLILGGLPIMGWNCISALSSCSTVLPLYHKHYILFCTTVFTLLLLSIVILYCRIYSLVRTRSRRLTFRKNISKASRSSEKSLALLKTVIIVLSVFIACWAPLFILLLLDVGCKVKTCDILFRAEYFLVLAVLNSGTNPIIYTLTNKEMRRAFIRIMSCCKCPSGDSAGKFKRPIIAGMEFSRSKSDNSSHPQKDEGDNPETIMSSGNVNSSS

For orientation: IC50 means the concentration at which inhibition is half-maximal. `O=C(O)C1CCCCC1c1c2ccc(=O)c(O)c-2oc2c(O)c(O)ccc12` (centres undefined): the IC50 in test [1] is 42.4 µM (active); in test [2] it was 9.85 µM (active).
For `COc1ccc2c(=O)cc(-c3ccc(O)cc3)oc2c1`, at Cytochrome P450 2D6, the AC50 is 15.8 µM (inconclusive).
In the case of `COc1ccc([N+](=O)[O-])c(S(=O)(=O)c2ccccc2)n1`, the AC50 is 8.06 µM (active) in test [3]; 8.18 µM (active) on Paired box protein Pax-8; 4.27 µM (active) in test [6]; 4.61 µM (active) in test [7]; 8.75 µM (active) in test [10]; 7.56 µM (active) in test [11]. Also, the results for the AC50 (in test [12]; in the test on INS1) were 0.501 µM (active) and 7.12 µM (active), respectively. The IC50 in [4] was 3.15 µM (active); in test [5], 0.691 µM (active); in [8], 7.19 µM (active); in test [9], 1.42 µM (not active).
Consider `CC(C)c1ccc(S(=O)(=O)c2nnn3c2nc(O)c2ccccc23)cc1` [SAVIRIN], for which the IC50 in the test with Staphylococcus aureus is 0.25 µM (active); at Genome polyprotein, 51.5 µM (active).
Consider `CCCc1ccc(-c2ccc(/C=C/C(=O)O)cc2)nc1`, for which, in [13], the half-maximal inhibitory concentration (IC50) is on record as > 39.8 µM (not active). In [14], the AC50 is 0.039 µM (active).
